Reference: US11021444B2, “Antiviral compounds” (priority 2013, dated 2021)
pEC50, pIC50: −log10 of the molar value. Where two headings read alike, the source gives them in different places.

Key:
[1] = system: RSV replicon; test: microbe, parasite or virus in culture; type: cell-based; settings: human respiratory syncytial virus, read-out: EC50, the concentration of the drug required for reducing RSV replicon RNA by 50%
[2] = system: Respiratory Syncytial Virus (RSV) long strain; test: microbe, parasite or virus in culture; type: cell-based; settings: human respiratory syncytial virus, Tables A and B list compounds by EC50 band
Procedure, shortened: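 HEp-2 cells infected with 100 TCID50 virus per well, compounds in duplicate, 9-point 1/3 dilutions from 100 μM or 1 μM, 1% DMSO. After 5 days at 37 °C, cell viability (CPE protection) read by CCK-8 absorbance at 450 nm, 630 nm background.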

[3] = biological target: recombinant RSV complex (Human respiratory syncytial virus A, UniProt P28887); test: RSV Polymerase Inhibition Assay; type: biochemical
Chain of recombinant RSV complex (P28887 whole entry): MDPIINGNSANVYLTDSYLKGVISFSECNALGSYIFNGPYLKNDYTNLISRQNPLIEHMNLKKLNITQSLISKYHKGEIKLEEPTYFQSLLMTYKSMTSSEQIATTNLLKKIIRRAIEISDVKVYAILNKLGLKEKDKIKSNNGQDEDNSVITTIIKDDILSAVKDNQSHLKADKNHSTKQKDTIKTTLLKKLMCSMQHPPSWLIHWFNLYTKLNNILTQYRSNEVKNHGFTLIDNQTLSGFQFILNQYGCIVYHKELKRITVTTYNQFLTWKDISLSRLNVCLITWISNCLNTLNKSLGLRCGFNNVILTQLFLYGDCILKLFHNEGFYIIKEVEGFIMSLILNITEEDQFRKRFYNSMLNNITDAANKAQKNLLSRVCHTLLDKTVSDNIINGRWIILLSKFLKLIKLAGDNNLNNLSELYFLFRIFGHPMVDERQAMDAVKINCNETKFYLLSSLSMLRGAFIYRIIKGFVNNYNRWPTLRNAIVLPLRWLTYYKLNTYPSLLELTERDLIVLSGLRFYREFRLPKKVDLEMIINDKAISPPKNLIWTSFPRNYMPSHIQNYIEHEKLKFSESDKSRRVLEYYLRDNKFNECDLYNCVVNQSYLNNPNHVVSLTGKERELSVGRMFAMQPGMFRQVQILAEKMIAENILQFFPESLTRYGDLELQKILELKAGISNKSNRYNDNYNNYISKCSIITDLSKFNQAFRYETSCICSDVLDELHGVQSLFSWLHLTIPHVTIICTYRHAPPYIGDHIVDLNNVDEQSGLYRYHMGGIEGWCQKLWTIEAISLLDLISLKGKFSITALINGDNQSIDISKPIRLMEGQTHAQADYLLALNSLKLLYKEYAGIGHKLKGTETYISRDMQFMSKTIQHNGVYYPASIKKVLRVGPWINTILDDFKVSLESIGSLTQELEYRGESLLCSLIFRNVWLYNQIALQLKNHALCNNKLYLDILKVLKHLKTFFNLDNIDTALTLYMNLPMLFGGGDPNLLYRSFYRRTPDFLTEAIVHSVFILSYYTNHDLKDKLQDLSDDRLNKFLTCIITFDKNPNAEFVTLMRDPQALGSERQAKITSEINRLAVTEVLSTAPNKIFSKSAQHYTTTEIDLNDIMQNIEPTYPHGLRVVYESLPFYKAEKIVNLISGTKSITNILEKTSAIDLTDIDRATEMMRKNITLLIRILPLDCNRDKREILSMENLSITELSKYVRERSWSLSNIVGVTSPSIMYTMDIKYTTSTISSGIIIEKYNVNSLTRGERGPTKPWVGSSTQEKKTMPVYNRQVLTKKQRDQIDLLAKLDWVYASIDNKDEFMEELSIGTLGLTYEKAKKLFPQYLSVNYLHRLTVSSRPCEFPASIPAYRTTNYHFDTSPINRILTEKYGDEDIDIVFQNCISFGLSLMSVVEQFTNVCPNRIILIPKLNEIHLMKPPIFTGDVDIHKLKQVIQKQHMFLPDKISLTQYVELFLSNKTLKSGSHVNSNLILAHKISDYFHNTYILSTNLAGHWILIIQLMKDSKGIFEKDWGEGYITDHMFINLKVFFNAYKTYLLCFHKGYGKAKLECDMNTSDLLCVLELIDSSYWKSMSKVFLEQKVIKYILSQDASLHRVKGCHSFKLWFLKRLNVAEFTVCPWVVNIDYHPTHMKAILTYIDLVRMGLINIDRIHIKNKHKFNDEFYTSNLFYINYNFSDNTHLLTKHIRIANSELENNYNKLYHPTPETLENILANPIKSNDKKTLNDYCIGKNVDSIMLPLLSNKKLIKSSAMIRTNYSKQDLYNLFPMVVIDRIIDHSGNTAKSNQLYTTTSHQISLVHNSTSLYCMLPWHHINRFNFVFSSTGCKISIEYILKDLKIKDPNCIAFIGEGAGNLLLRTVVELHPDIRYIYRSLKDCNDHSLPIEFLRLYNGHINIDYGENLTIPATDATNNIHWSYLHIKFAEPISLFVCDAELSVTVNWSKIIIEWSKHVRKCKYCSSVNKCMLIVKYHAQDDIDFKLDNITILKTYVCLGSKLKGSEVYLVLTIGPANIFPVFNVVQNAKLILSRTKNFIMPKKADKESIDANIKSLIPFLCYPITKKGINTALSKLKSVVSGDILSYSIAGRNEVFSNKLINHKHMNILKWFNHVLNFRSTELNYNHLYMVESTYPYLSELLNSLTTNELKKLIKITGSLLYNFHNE
Chain of recombinant RSV complex (P03421 whole entry, further chain): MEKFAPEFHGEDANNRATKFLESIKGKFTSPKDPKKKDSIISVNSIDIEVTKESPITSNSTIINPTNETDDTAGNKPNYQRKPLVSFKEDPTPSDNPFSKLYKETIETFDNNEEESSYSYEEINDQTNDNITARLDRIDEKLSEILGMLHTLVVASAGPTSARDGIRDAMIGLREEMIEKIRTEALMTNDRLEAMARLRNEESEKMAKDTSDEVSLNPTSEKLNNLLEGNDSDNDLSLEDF
Procedure, shortened: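 10 nM recombinant RSV polymerase complex in Tris-HCl pH 7.5, 6 mM MgCl2 with RNA oligonucleotide template and radionucleotides, incubated 2 h at 30 °C with increasing inhibitor concentrations. Reaction stopped with EDTA; radiolabeled RNA product counted by scintillation.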

[4] = Cytotoxicity Determination (CCK-8, without addition of virus); type: cell-based; settings: human
Procedure, shortened: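 HEp-2 cells were seeded at 1,500 cells/well one day before compound addition. Compounds were tested without virus in duplicate over 7 points from 100 μM in 1/2 steps, with 1% final DMSO, 5 days at 37 °C, 5% CO2. Viability was read by CCK-8 after 3-4 hours.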

[5] = HEp-2, 120 h, read-out: 50% effective concentration (EC50), HEp-2 cells infected with RSV long strain, 5 days, CCK-8 readout
[6] = 50% cytotoxicity concentration (CC50)
[7] = 120 h, read-out: 50% effective concentration (EC50), HEp-2 cells infected with RSV long strain, 5 days, CCK-8 readout

| SMILES | pEC50 [1] | pEC50 [2, 5] | pIC50 [3] | CC50 at 5 days [4, 6] [µM] | pEC50 [2, 7] | CC50 at 5 days ([4]; no virus, 5 days, CCK-8 readout, Tables C and D list compounds by CC50 band) [µM] |
| --- | --- | --- | --- | --- | --- | --- |
| COc1cc(C(=O)NCC(C)(F)c2ccc(OC)c(-c3ccc(F)c(Cl)c3)n2)ccc1OCCO (centres unmarked) [Compound 365] | > 6.00 | > 6.00 | > 6.00 | 10 to 100 | – | – |
| COc1cc(C(=O)NCC(F)(c2ccc(OC)c(-c3ccc(F)c(Cl)c3)n2)C2CC2)ccc1OCCO (centres unmarked) [Compound 366] | > 6.00 | > 6.00 | > 6.00 | 10 to 100 | – | – |
| COc1cc(C(=O)NCC(C)(O)c2ccc(OC)c(-c3ccc(F)c(Cl)c3)n2)ccc1OC1CC1 (centres unmarked) [Compound 369] | > 6.00 | > 6.00 | > 6.00 | 10 to 100 | – | – |
| COc1cc(C(=O)NCC(O)(c2ccc(OC)c(-c3ccc(F)c(Cl)c3)n2)C(F)(F)F)ccc1OC1CC1 (centres unmarked) [Compound 370] | > 6.00 | – | > 6.00 | > 100 | > 6.00 | – |
| COc1cc(C(=O)NCC(C)(O)c2ccc(OC)c(-c3ccc(F)c(Cl)c3)n2)ccc1OC(C)(C)C (centres unmarked) [Compound 371] | > 6.00 | > 6.00 | > 6.00 | 10 to 100 | – | – |
| COc1cc(C(=O)NCC(C)(O)c2ccc(OC)c(-c3ccc(F)c(Cl)c3)n2)ccc1OCC(F)F (centres unmarked) [Compound 372] | > 6.00 | > 6.00 | > 6.00 | 10 to 100 | – | – |
| COc1cc(C(=O)NCC(O)(c2ccc(OC)c(-c3ccc(F)c(Cl)c3)n2)C(F)(F)F)ccc1OCC(F)F (centres unmarked) [Compound 373] | > 6.00 | > 6.00 | > 6.00 | > 100 | – | – |
| COc1cc(C(=O)OCC(O)(CN)c2ccc(OC)c(-c3ccc(F)c(Cl)c3)n2)ccc1OC1CC1 (centres unmarked) [Compound 383] | > 6.00 | > 6.00 | > 6.00 | 10 to 100 | – | – |
| COc1cc(C(=O)NCC(O)(CO)c2ccc(OC)c(-c3ccc(F)c(Cl)c3)n2)ccc1OC1CC1 (centres unmarked) [Compound 384] | > 6.00 | > 6.00 | > 6.00 | 10 to 100 | – | – |
| COc1cc(C(=O)NCC(F)(CO)c2ccc(OC)c(-c3ccc(F)c(Cl)c3)n2)ccc1OC1CC1 (centres unmarked) [Compound 385] | > 6.00 | > 6.00 | > 6.00 | 10 to 100 | – | – |
| CCNC(=O)NC(C)(C)c1cc(-c2ccc(F)c(Cl)c2)nc(C(O)(CNC(=O)c2ccc(OC3CC3)c(OC)c2)C(F)(F)F)c1 (centres unmarked) [Compound 387] | > 6.00 | > 6.00 | > 6.00 | > 100 | – | – |
| CCNC(C)(C)c1cc(-c2ccc(F)cc2)nc(C(O)(CNC(=O)c2ccc(OC3CC3)c(OC)c2)C(F)(F)F)c1 (centres unmarked) [Compound 388] | > 6.00 | > 6.00 | > 6.00 | 10 to 100 | – | – |
| CCNC(C)(C)c1cc(-c2ccc(F)c(Cl)c2)nc(C(O)(CNC(=O)c2ccc(OC[C@H](C)O)c(OC)c2)C(F)(F)F)c1 (some centres unmarked) [Compound 391] | > 6.00 | > 6.00 | > 6.00 | 10 to 100 | – | – |
| COc1cc(C(=O)NCC(O)(c2cc(C(C)(C)NC(C)C)cc(-c3ccc(F)c(Cl)c3)n2)C(F)(F)F)ccc1OC1CC1 (centres unmarked) [Compound 392] | > 6.00 | > 6.00 | > 6.00 | 10 to 100 | – | – |
| COc1cc(C(=O)NCC(O)(c2cc(C(C)(C)N)cc(-c3ccc(F)c(Cl)c3)n2)C(F)(F)F)ccc1OCC(C)(C)O (centres unmarked) [Compound 396] | > 6.00 | > 6.00 | > 6.00 | 10 to 100 | – | – |
| COc1cc(C(=O)NCC(O)(c2cc(C(C)(C)N(C)C)cc(-c3ccc(F)c(Cl)c3)n2)C(F)(F)F)ccc1OC1CC1 (centres unmarked) [Compound 400] | > 6.00 | – | > 6.00 | 10 to 100 | > 6.00 | – |

| SMILES | pEC50 [1] | pEC50 [2, 5] | pIC50 [3] | CC50 at 5 days [4, 6] [µM] | pEC50 [2, 7] | CC50 at 5 days ([4]; no virus, 5 days, CCK-8 readout, Tables C and D list compounds by CC50 band) [µM] |
| --- | --- | --- | --- | --- | --- | --- |
| COc1cc(C(=O)NCC(C)(O)c2ccc(OC)c(-c3ccc(F)c(Br)c3)n2)ccc1OCC(N)=O (centres unmarked) [Compound 403] | > 6.00 | > 6.00 | > 6.00 | > 100 | – | – |
| COc1cc(C(=O)NCC(C)(O)c2ccc(OC)c(-c3c[nH]c4c(F)cccc34)n2)ccc1OCC(N)=O (centres unmarked) [Compound 419] | > 6.00 | > 6.00 | > 6.00 | > 100 | – | – |
| COc1cc(C(=O)NCC(O)(CF)c2ccc(OC)c(-c3ccc(F)c(Cl)c3)n2)ccc1OCCO (centres unmarked) [Compound 424] | > 6.00 | > 6.00 | > 6.00 | 10 to 100 | – | – |
| COc1ccc(C(O)(CNC(=O)c2ccc(OCCO)c(Cl)c2)C2CC2)nc1-c1ccc(F)c(Cl)c1 (centres unmarked) [Compound 425] | > 6.00 | > 6.00 | > 6.00 | 10 to 100 | – | – |
| COc1cc(C(=O)NCC(O)(c2ccc(OC)c(-c3ccc(F)c(Cl)c3)n2)C2CC2)ccc1Cn1cncn1 (centres unmarked) [Compound 434] | > 6.00 | > 6.00 | > 6.00 | 10 to 100 | – | – |
| COc1cc(C(=O)NCC(O)(c2ccc(OC)c(-c3ccc(F)c(Cl)c3)n2)C(F)F)ccc1OCCO (centres unmarked) [Compound 436] | > 6.00 | > 6.00 | > 6.00 | 10 to 100 | – | – |
| COc1cc(C(=O)NCC(O)(c2ccc(OC)c(-c3ccc(F)c(Cl)c3)n2)C2CC2)ccc1OC(C)(F)F (centres unmarked) [Compound 437] | > 6.00 | 4.30 to 6.00 | > 6.00 | 10 to 100 | – | – |
| COc1cc(C(=O)NCC(O)(c2ccc(OC)c(-c3ccc(F)c(Cl)c3)n2)C2CC2)ccc1Cn1ccnc1 (centres unmarked) [Compound 438] | 4.30 to 6.00 | 4.30 to 6.00 | > 5.00 | 10 to 100 | – | – |
| COc1cc(C(=O)NCC(O)(c2ccc(OC)c(-c3ccc(F)c(Br)c3)n2)C(F)(F)F)ccc1OCC(N)=O (centres unmarked) [Compound 443] | > 6.00 | > 6.00 | > 6.00 | 10 to 100 | – | – |
| COc1cc(C(=O)NCC(O)(c2ccc(OC)c(-c3ccc(F)c(Cl)c3)n2)C(F)F)ccc1OC[C@@H](C)O (some centres unmarked) [Compound 444] | > 6.00 | > 6.00 | > 6.00 | 10 to 100 | – | – |
| COc1cc(C(=O)NCC(O)(c2ccc(OC)c(-c3ccc(F)c(Cl)c3)n2)C(F)F)ccc1OC1CC1 (centres unmarked) [Compound 445] | > 6.00 | > 6.00 | > 6.00 | 10 to 100 | – | – |
| CNc1cc(-c2ccc(F)c(Cl)c2)nc(C(O)(CNC(=O)c2ccc(OC3CC3)c(OC)c2)C(F)(F)F)c1 (centres unmarked) [Compound 448] | > 6.00 | > 6.00 | > 6.00 | 10 to 100 | – | – |
| COc1ccc(C(O)(CO)CNC(=O)c2ccc(OC3CCNC3=O)c(Cl)c2)nc1-c1ccc(F)c(Cl)c1 (centres unmarked) [Compound 452] | > 6.00 | > 6.00 | > 6.00 | 10 to 100 | – | – |
| COc1ccc(C(O)(CO)CNC(=O)c2cc(OC)c3ncccc3c2)nc1-c1ccc(F)c(Cl)c1 (centres unmarked) [Compound 453] | > 6.00 | > 6.00 | > 6.00 | 10 to 100 | – | – |
| COc1cc(C(=O)NCC(O)(c2ccc(OC)c(-c3ccc(F)c(Cl)c3)n2)C(C)O)ccc1OC1CC1 (centres unmarked) [Compound 454] | > 6.00 | > 6.00 | > 6.00 | 10 to 100 | – | – |
| COc1cc(C(=O)NCC(O)(c2cc(C(C)N)cc(-c3ccc(F)c(Cl)c3)n2)C(F)(F)F)ccc1OC1CC1 (centres unmarked) [Compound 459] | > 6.00 | > 6.00 | > 6.00 | – | – | 10 to 100 |
